Results as given in PubChem BioAssay AID1963429 (Molecular Pharmacology Branch, DTP, NCI, 2024).
Where “and” joins values, the source holds several entries; their conditions need not be identical. Identical values can stand only once.

Tested on: 126254-015-R-J1-PDC complex spheroid growth, % test/control
Test: Anticancer human tumor 126254-015-R-J1-PDC patient-derived soft tissue sarcoma cell line growth inhibition [Asc]
Conditions: for viability, T/C: stronger effect = lower value
Experimental: Multicellular complex tumor spheroid response to apoptosis pathway targeting inhibitors Alrizomadlin, Pelcitoclax, and Dasminapant in combination with a variety of drugs and investigational agents in selected tumor cell lines
The MDM2 inhibitor alrizomadlin, the Bcl-2/Bcl-xL inhibitor pelcitoclax, and the IAPs inhibitor dasminapant were evaluated both individually and in combination with standard of care and investigational anticancer small molecules within a complex spheroid model of solid tumors. . Complex spheroids include a stromal component modeled by human endothelial cells (HUVEC) and fibroblasts modeled by human mesenchymal stem cells (MSCs). The concentration ranges selected for each drug and investigational agent were based upon clinically achievable concentrations if the clinical Cmax of the agent was known.
Compounds. The drugs and investigational agents: alrizomadlin (APG-115; NSC831270), pelcitoclax (APG-1252; NSC835773), dasminapant (APG-1387;NSC834197), TAK-243 (NSC785004), copanlisib (NSC809693), olaparib (NSC753686), talazoparib (NSC767125), cobimetinib (NSC 768068), eltanexor (KPT-8602, NSC 794443), abemaciclib (NSC 768073), sotorasib (NSC818433), adagrasib (NSC 831453), MRTX-1133 (NSC 836407), Iadademestat (ORY1001, NSC 806812), and RMC-4630 (NSC839698), were obtained from the NCI Developmental Therapeutics Program Chemical Repository. The FDA-approved anticancer drug set is available from the Developmental Therapeutics Program at https://dtp.cancer.gov/organization/dscb/obtaining/available plates.htm. […] The stock solutions were prepared in dimethyl sulfoxide (DMSO, Sigma-Aldrich, St. Louis, MO, cat. D2650) at 800-fold the tested concentration and stored at -70 degrees C prior to their use. All drugs and investigational agents were tested over a range starting from a high concentration at or near the clinical Cmax and decreasing in half-log increments. If the clinical Cmax for an agent had not been determined, the highest concentration tested was 10 microM.
The patient-derived cancer (PDC) cell lines include five colon adenocarcinomas: 186277-243-T-J2-PDC, 616215-338-R-J1-PDC, 439559-082-T-J2-PDC, 463943-066-T-J2-PDC, and 519858-162-T-J1-PDC; three pancreatic carcinomas: 323965-272-R-J2-PDC, 521955-158-R6-J3-PDC, and 521955-158-R2-J5-PDC; two uterine sarcomas: 327498-152-R-J2-PDC and 993429-296-R-J1-PDC; two rhabdomyosarcomas: 755483-174-R-J1-PDC and 772245-204-R-J1-PDC; two soft tissue sarcomas: 126254-015-R-J1-PDC and 494315-158-R-J1-PDC; two malignant fibrous histiocytomas: 317291-083-R-J1-PDC and 596521-263-R-J1-PDC; two breast carcinomas: 171881-019-R-J1-PDC and 885512-296-R-J2-PDC; and one ovarian carcinoma: 6556581-035-R-J-PDC were obtained from the NCI PDMR, (https://pdmr.cancer.gov). The established cell lines HSSY-2 synovial sarcoma (RRID:CVCL 8719), SYO-1 synovial sarcoma (RRID:CVCL_7146), MPNST malignant peripheral neural sheath tumor were obtained from the Sloan Kettering Institute. The following established cell lines were purchased from the American Type Culture Collection (ATCC, Manassas, VA), Sor the received from the NCI repository:, PANC-1 pancreatic carcinoma (CRL-1469, RRID:CVCL_0480), OVCAR-5 ovarian carcinoma (RRID:CVCL_1628), OVCAR-8 ovarian carcinoma (RRID:CVCL_1629), , MCF-7 breast carcinoma (CRL-12584, RRID:CVCL_0031), MDA-MB-231 breast carcinoma (CRL-12532, RRID:CVCL_0062), NCI-H1876 small cell lung carcinoma (CRL-5902, RRID:CVCL_1503), NCI-H510A small cell lung carcinoma (HTB-184, RRID:CVCL_1565), NCI-H1417 (CRL-5869, RRID:CVCL_1469), and NCI-H196 small cell lung carcinoma (CRL-5823, RRID:CVCL_1509). Dr. Peter Houghton (Greehey Children's Cancer Research Institute, University of Texas Health Science Center, San Antonio, TX) provided Rh-18 rhabdomyosarcoma (RRID:CVCL_1659). Pooled donor human umbilical vein endothelial cells (HUVEC, Lonza, cat. CC-2519) and human mesenchymal stem cells (hMSC, Lonza, cat. PT-2501) were purchased from Lonza (Walkersville, MD).
Cell Culture. […]

[1] = curve of first compound, second compound 0.1 µM
[2] = curve of first compound, second compound 0.316 µM
[3] = curve of first compound, second compound 1 µM
[4] = curve of first compound, second compound 3.16 µM
[5] = curve of first compound, second compound 10 µM
[6] = second compound 0.1 µM, first compound 0.00949 µM
[7] = second compound 0.1 µM, first compound 0.03 µM
[8] = second compound 0.1 µM, first compound 0.0949 µM
[9] = second compound 0.1 µM, first compound 0.3 µM
[10] = second compound 0.316 µM, first compound 0.00949 µM
[11] = second compound 0.316 µM, first compound 0.03 µM
[12] = second compound 0.316 µM, first compound 0.0949 µM
[13] = second compound 0.316 µM, first compound 0.3 µM
[14] = second compound 1 µM, first compound 0.00949 µM
[15] = second compound 1 µM, first compound 0.03 µM
[16] = second compound 1 µM, first compound 0.0949 µM
[17] = second compound 1 µM, first compound 0.3 µM
[18] = second compound 3.16 µM, first compound 0.00949 µM
[19] = second compound 3.16 µM, first compound 0.03 µM
[20] = second compound 3.16 µM, first compound 0.0949 µM
[21] = second compound 3.16 µM, first compound 0.3 µM
[22] = second compound 10 µM, first compound 0.00949 µM
[23] = second compound 10 µM, first compound 0.03 µM
[24] = second compound 10 µM, first compound 0.0949 µM
[25] = second compound 10 µM, first compound 0.3 µM
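Further: spheroids exposed to compound for seven days.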
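Wherever viability, T/C is given: 100% = DMSO vehicle control wells.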

Row | IC50 [1] | IC50 [2] | IC50 [3] | IC50 [4] | IC50 [5] | Compound | viability, T/C [6] | viability, T/C [7] | viability, T/C [8] | viability, T/C [9] | viability, T/C [10] | viability, T/C [11] | viability, T/C [12] | viability, T/C [13] | viability, T/C [14] | viability, T/C [15] | viability, T/C [16] | viability, T/C [17] | viability, T/C [18] | viability, T/C [19] | viability, T/C [20] | also measured
1 | 30.5 nM | 37.3 nM | 31.5 nM | 29.6 nM | 26.1 nM | NC(=O)C(=Cn1cnc(-c2cc(C(F)(F)F)cc(C(F)(F)F)c2)n1)c1cncnc1 + Cc1c(S(C)(=O)=O)c(-c2cc(F)cc(N3CCN(c4ccc(NS(=O)(=O)c5ccc(NC(CCN6CCC(C(=O)OCCCP(=O)(O)O)CC6)CSc6ccccc6)c(S(=O)(=O)C(F)(F)F)c5)cc4)CC3)c2)c(-c2ccc(Cl)cc2)n1C(C)C | 74.5% | 53.2% | 22% | 11% | 70% | 58% | 23% | 8.76% | 76.6% | 49.5% | 23% | 7.77% | 77.5% | 50.6% | 19.3% | viability, T/C (second compound 0.1 µM, first compound 0.000949 µM): 98.5%; viability, T/C (second compound 0.1 µM, first compound 0.003 µM): 93.8%; viability, T/C (second compound 0.316 µM, first compound 0.000949 µM): 78.1%; viability, T/C (second compound 0.316 µM, first compound 0.003 µM): 82.4%; viability, T/C (second compound 1 µM, first compound 0.000949 µM): 83.4%; viability, T/C (second compound 1 µM, first compound 0.003 µM): 74%; viability, T/C (second compound 3.16 µM, first compound 0.000949 µM): 94.8%; viability, T/C (second compound 3.16 µM, first compound 0.003 µM): 82.7%; viability, T/C [21]: 7.61%; viability, T/C (second compound 10 µM, first compound 0.000949 µM): 85.6%; viability, T/C (second compound 10 µM, first compound 0.003 µM): 77.2%; viability, T/C [22]: 68.4%; viability, T/C [23]: 49.9%; viability, T/C [24]: 19.3%; viability, T/C [25]: 7.73%
2 | 765 nM | 451 nM | 501 nM | 362 nM | 465 nM | Cc1nc(N2CCC3(CC2)COC(C)C3N)c(CO)nc1Sc1ccnc(N)c1Cl (configuration not stated) + Cc1c(S(C)(=O)=O)c(-c2cc(F)cc(N3CCN(c4ccc(NS(=O)(=O)c5ccc(NC(CCN6CCC(C(=O)OCCCP(=O)(O)O)CC6)CSc6ccccc6)c(S(=O)(=O)C(F)(F)F)c5)cc4)CC3)c2)c(-c2ccc(Cl)cc2)n1C(C)C | 88.7% | 82.2% | 68.6% | 56.7% | 83.1% | 77.6% | 67.8% | 55.3% | 80.8% | 75.7% | 72.2% | 54.4% | 78.6% | 80.7% | 70.4% | viability, T/C (second compound 0.1 µM, first compound 0.949 µM): 51.9%; viability, T/C (second compound 0.1 µM, first compound 3 µM): 34.4%; viability, T/C (second compound 0.316 µM, first compound 0.949 µM): 41%; viability, T/C (second compound 0.316 µM, first compound 3 µM): 34.2%; viability, T/C (second compound 1 µM, first compound 0.949 µM): 43.2%; viability, T/C (second compound 1 µM, first compound 3 µM): 30.7%; viability, T/C [21]: 51.7%; viability, T/C (second compound 3.16 µM, first compound 0.949 µM): 40.1%; viability, T/C (second compound 3.16 µM, first compound 3 µM): 34.6%; viability, T/C [22]: 79.2%; viability, T/C [23]: 84.7%; viability, T/C [24]: 74%; viability, T/C [25]: 56.1%; viability, T/C (second compound 10 µM, first compound 0.949 µM): 40.2%; viability, T/C (second compound 10 µM, first compound 3 µM): 32%
3 |  |  |  |  |  | C=C(F)C(=O)N1CCN(c2nc(OCC3CCCN3C)nc3c2CCN(c2cccc4cccc(Cl)c24)C3)CC1CC#N (configuration not stated) |  |  |  |  |  |  |  |  |  |  |  |  |  |  |  | viability, T/C (compound 0.0316 µM): 92% and 107% and 106%; viability, T/C (compound 0.1 µM): 96.8% and 102% and 95.5%; viability, T/C (compound 0.316 µM): 94% and 110% and 105%; viability, T/C (compound 1 µM): 92.7% and 106% and 93.5%; viability, T/C (compound 3.16 µM): 37.7% and 43.4% and 69.6%; viability, T/C (compound 10 µM): 0.22% and 0.29% and 0.24%; IC50 (curve of compound): 2450 nM and 2800 nM and 4360 nM
